The term IC50 denotes the midpoint of a concentration-inhibition curve.

For one series, the target named is HCV Con1b (Replicon). The series is described as follows: HCV Con1b (Replicon) Luciferase end-point. The settings on record: for CC50: read-out: TC50 (the source's name). In kind it is cell-based, Hepatitis C Virus. For orientation: In antiviral work, replicon cells carry a viral genome segment that copies itself.
In the next series the test system is WNV. In words: WNV antiviral assay. The series is classed as cell-based, West Nile Virus. The settings on record: for CC50: read-out: TC50 (the source's name). From the text: The use of N-(2,3-dihydro-1H-inden-5-yl)-2-(4-oxo-3-phenyl-3,4-dihydroquinazolin-2-yl)thio) acetamide, a compound employed according to the present disclosure, for treating West Nile Virus has been disclosed. For example, please see Chung et al. A Cell Based Assay for the Identification of Lead Compounds with Anti-Viral Activity Against West Nile Virus, Probe Reports from the NIH Molecular Libraries Program[Internet]. Bethesda (Md.): National Center for Biotechnology Information (US); 2010-2010 Feb. 27 [updated 2010 Oct. 4], PMID: 21433390 [PubMed].

For another series, the system named is HCV Con 1b (Replicon). The series is described as follows: HCV Con 1b (Replicon) RNA end-point. The series is classed as cell-based, Hepatitis C Virus. Conditions: HCV Con 1b replicon, RNA end-point; for CC50: read-out: TC50 (the source's name). The method, then: The reduction in HCV was determined with two assays using viral RNA endpoints. […] This cell line expresses a subgenomic section of the HCV genome containing NS2a, NS2b, NS3a, NS3b, NS4a, NS4b, NS5a and NS5b.

With `O=C(CSc1nc2ccccc2c(=O)n1-c1ccc(Cl)c(Cl)c1)Nc1ccc2scnc2c1` [Example C46, N-benzothiazol-5-yl-2-[3-(3,4-dichlorophenyl)-4-oxo(3-hydroquinazolin-2-ylthio)]acetamide], at HCV Con1b (Replicon), the IC50 was 1 to 5 µM and the CC50 is not below 100 µM.

`Cc1cccc2c(=O)n(-c3ccccc3)c(SCC(=O)Nc3ccc4c(c3)CCC4)nc12` [Example C16, N-indan-5-yl-2-(8-methyl-4-oxo-3-phenyl(3-hydroquinazolin-2-ylthio))acetamide]: at HCV Con1b (Replicon), the IC50 is 1 to 5 µM and the CC50 lay in the range of 10 to 50 µM.

Consider `O=C(CSc1nc2cccc(F)c2c(=O)n1-c1cc(F)c(F)c(F)c1)Nc1ccc2c(c1)CCC2` [Example C30, 2-[5-fluoro-4-oxo-3-(3,4,5-trifluorophenyl)(3-hydroquinazolin-2-ylthio)]-N-indan-5-ylacetamide], for which, at HCV Con1b (Replicon), the IC50 fell in the range of 1 to 5 µM and the CC50 fell in the range of 50 to 100 µM.

Turning to `O=C(CSc1nc2ccccc2c(=O)n1-c1cc(Cl)cc(Cl)c1)Nc1ccc2c(c1)CCC2` [Example C20, 2-[3-(3,5-dichlorophenyl)-4-oxo(3-hydroquinazolin-2-ylthio)]-N-indan-5-ylacetamide], in the series on WNV, the IC50 lay within 1 to 5 µM and the CC50 is not below 100 µM.

With `O=C(CSc1nc2ccccc2c(=O)n1-c1ccc(F)c(Cl)c1)Nc1cccc2c1CCC2` [Example C22, 2-[3-(3-chloro-4-fluorophenyl)-4-oxo(3-hydroquinazolin-2-ylthio)]-N-indan-4-ylacetamide], on HCV Con1b (Replicon), the IC50 lay in the range of 1 to 5 µM and the CC50 was 10 to 50 µM.

Regarding `O=C(CSc1nc2ccccc2c(=O)n1-c1cc(F)cc(F)c1)Nc1ccc2c(c1)CCC2` [Example C38, 2-[3-(3,5-difluorophenyl)-4-oxo(3-hydroquinazolin-2-ylthio)]-N-indan-5-ylacetamide], in the series with WNV, the IC50 lay within 5 to 25 µM and the CC50 is not below 100 µM.

On to `O=C(CSc1nc2ccccc2c(=O)n1-c1ccc(Cl)c(Cl)c1)Nc1ccc2c(c1)OCO2` [Example C19, N-(2H-benzo[d]1,3-dioxolen-5-yl)-2-[3-(3,4-dichlorophenyl)-4-oxo(3-hydroquinazolin-2-ylthio)]acetamide], for which, at HCV Con1b (Replicon), the IC50 lay within 1 to 5 µM and the CC50 was not below 100 µM.

Regarding `O=C(CCSc1nc2ccccc2c(=O)n1-c1ccc(F)c(Cl)c1)Nc1ccc2c(c1)CCC2` [Example C21, 3-[3-(3-chloro-4-fluorophenyl)-4-oxo(3-hydroquinazolin-2-ylthio)]-N-indan-5-ylpropanamide], at HCV Con1b (Replicon), the IC50 was in the range of 5 to 25 µM and the CC50 is 10 to 50 µM.

Take `O=C(CSc1nc2ccccc2c(=O)n1-c1ccc(F)c(F)c1)Nc1cccc2c1CCC2` [Example C26, 2-[3-(3,4-difluorophenyl)-4-oxo(3-hydroquinazolin-2-ylthio)]-N-indan-4-ylacetamide]: in the series on HCV Con 1b (Replicon), the IC50 was less than 1 µM and the CC50 fell in the range of 50 to 100 µM. At HCV Con1b (Replicon), the IC50 is less than 1 µM and the CC50 was not below 100 µM.

For `O=C(CSc1nc2ccccc2c(=O)n1-c1ccccc1F)Nc1ccc2c(c1)CCC2` [Example C11, 2-[3-(2-fluorophenyl)-4-oxo(3-hydroquinazolin-2-ylthio)]-N-indan-5-ylacetamide], in the series on WNV, the IC50 was 5 to 25 µM and the CC50 was not below 100 µM.

With `O=C(CSc1nc2ccccc2c(=O)n1-c1cc(F)c(F)cn1)Nc1ccc2c(c1)CCC2` [Example C43, 2-[3-(4,5-difluoro(2-pyridyl))-4-oxo(3-hydroquinazolin-2-ylthio)]-N-indan-5-ylacetamide], in the series with WNV, the IC50 was 5 to 25 µM and the CC50 is not below 100 µM.

Take `Cc1cc(-n2c(SCC(=O)Nc3ccc4c(c3)CCC4)nc3ccccc3c2=O)ccc1Cl` [Example C33, 2-[3-(4-chloro-3-methylphenyl)-4-oxo(3-hydroquinazolin-2-ylthio)]-N-indan-5-ylacetamide]: in the series with WNV, the IC50 lay within 1 to 5 µM and the CC50 lay in the range of 50 to 100 µM.

Turning to `O=C(CSc1nc2cccc(F)c2c(=O)n1-c1ccc(Cl)c(Cl)c1)Nc1ccc2c(c1)CCC2` [Example C31], at HCV Con1b (Replicon), the IC50 is less than 1 µM and the CC50 is 10 to 50 µM. Moreover, in the series on WNV, the IC50 was in the range of 5 to 25 µM and the CC50 was not below 100 µM.

With `O=C(CSc1nc2ccccc2c(=O)n1-c1ccc(Cl)c(Cl)c1)Nc1cccc2c1CCC2` [Example C18, 2-[3-(3,4-dichlorophenyl)-4-oxo(3-hydroquinazolin-2-ylthio)]-N-indan-4-ylacetamide], on HCV Con1b (Replicon), the IC50 is 5 to 25 µM and the CC50 was in the range of 50 to 100 µM.

Regarding `O=C(CSc1nc2c(F)cccc2c(=O)n1-c1ccc(Cl)c(Cl)c1)Nc1ccc2c(c1)CCC2` [Example C37, 2-[3-(3,4-dichlorophenyl)-8-fluoro-4-oxo(3-hydroquinazolin-2-ylthio)]-N-indan-5-ylacetamide], in the series with WNV, the IC50 fell in the range of 5 to 25 µM and the CC50 was 10 to 50 µM.

For `O=C(CSc1nc2ccccc2c(=O)n1-c1ccc(Cl)c(Br)c1)Nc1ccc2c(c1)CCC2` [Example C41, 2-[3-(3-bromo-4-chlorophenyl)-4-oxo(3-hydroquinazolin-2-ylthio)]-N-indan-5-ylacetamide], in the series with WNV, the IC50 fell in the range of 5 to 25 µM and the CC50 is not below 100 µM.

Take `O=C(CSc1nc2ccccc2c(=O)n1-c1ccccc1)Nc1ccc2c(c1)CCC2` [Example C32, N-indan-5-yl-2-(4-oxo-3-phenyl(3-hydroquinazolin-2-ylthio))acetamide]: in the series on WNV, the IC50 was 5 to 25 µM and the CC50 was not below 100 µM.

Consider `O=C(CSc1nc2ccccc2c(=O)n1-c1ccc(Cl)c(Cl)c1)Nc1ccc2c(c1)CCC2` [Example C13, 2-[3-(3,4-dichlorophenyl)-4-oxo(3-hydroquinazolin-2-ylthio)]-N-indan-5-ylacetamide], for which, at HCV Con1b (Replicon), the IC50 was 1 to 5 µM and the CC50 is 50 to 100 µM. Moreover, in the series with WNV, the IC50 fell in the range of 5 to 25 µM and the CC50 is not below 100 µM.

Regarding `O=C(CSc1nc2cccc(F)c2c(=O)n1-c1ccccc1)NC1CCCc2ccccc21` (centres unmarked) [Example C28, 2-(5-fluoro-4-oxo-3-phenyl(3-hydroquinazolin-2-ylthio))-N-(1,2,3,4-tetrahydronaphthyl)acetamide], at HCV Con1b (Replicon), the IC50 is 5 to 25 µM and the CC50 was not below 100 µM.

For `O=C(CSc1nc2ccccc2c(=O)n1-c1ccc(F)c(Cl)c1)Nc1ccc2c(c1)OCO2` [Example C23, N-(2H-benzo[3,4-d]1,3-dioxolan-5-yl)-2-[3-(3-chloro-4-fluorophenyl)-4-oxo(3-hydroquinazolin-2-ylthio)]acetamide], on HCV Con1b (Replicon), the IC50 is 5 to 25 µM and the CC50 was not below 100 µM.

Regarding `O=C(CSc1nc2cccc(F)c2c(=O)n1-c1ccc(Cl)c(F)c1)Nc1ccc2c(c1)CCC2` [Example C29, 2-[3-(4-chloro-3-fluorophenyl)-5-fluoro-4-oxo(3-hydroquinazolin-2-ylthio)]-N-indan-5-ylacetamide], at HCV Con1b (Replicon), the IC50 lay in the range of 1 to 5 µM and the CC50 was not below 100 µM.

Take `Cc1cc(-n2c(SCC(=O)Nc3ccc4c(c3)CCC4)nc3ccccc3c2=O)ccc1F` [Example C34, 2-[3-(4-fluoro-3-methylphenyl)-4-oxo(3-hydroquinazolin-2-ylthio)]-N-indan-5-ylacetamide]: in the series with WNV, the IC50 lay within 5 to 25 µM and the CC50 was not below 100 µM.

`O=C(CSc1nc2c(F)cccc2c(=O)n1-c1cc(Cl)cc(Cl)c1)Nc1ccc2c(c1)CCC2` [Example C39, 2-[3-(3,5-dichlorophenyl)-8-fluoro-4-oxo(3-hydroquinazolin-2-ylthio)]-N-indan-5-ylacetamide]: in the series on WNV, the IC50 was 5 to 25 µM and the CC50 lay in the range of 50 to 100 µM.

For `O=C(CSc1nc2ccccc2c(=O)n1-c1cc(F)c(F)c(F)c1)Nc1ccc2c(c1)CCC2` [Example C35, N-indan-5-yl-2-[4-oxo-3-(3,4,5-trifluorophenyl)(3-hydroquinazolin-2-ylthio)]acetamide], in the series with WNV, the IC50 lay in the range of 5 to 25 µM and the CC50 is not below 100 µM.

For the molecule `O=C(CSc1nc2ccccc2c(=O)n1-c1c(Cl)cccc1Cl)Nc1ccc2c(c1)CCC2` [Example C40, 2-[3-(2,6-dichlorophenyl)-4-oxo(3-hydroquinazolin-2-ylthio)]-N-indan-5-ylacetamide], in the series on WNV, the IC50 lay within 5 to 25 µM and the CC50 was not below 100 µM.

In the case of `O=C(CSc1nc2ccccc2c(=O)n1-c1ccc(Cl)c(Cl)c1)Nc1nc(-c2ccccc2)cs1` [Example C45, 2-[3-(3,4-dichlorophenyl)-4-oxo(3-hydroquinazolin-2-ylthio)]-N-(4-phenyl(1,3-thiazol-2-yl))acetamide], in the series on HCV Con 1b (Replicon), the IC50 is less than 1 µM and the CC50 was 50 to 100 µM. Further, on HCV Con1b (Replicon), the IC50 is less than 1 µM and the CC50 is not below 100 µM.

With `Cc1ccc(-n2c(SCC(=O)Nc3ccc4c(c3)CCC4)nc3ccccc3c2=O)cc1Br` [Example C36, 2-[3-(3-bromo-4-methylphenyl)-4-oxo(3-hydroquinazolin-2-ylthio)]-N-indan-5-ylacetamide], in the series with WNV, the IC50 lay in the range of 5 to 25 µM and the CC50 was not below 100 µM.

As to `O=C(CSc1nc2ccccc2c(=O)n1-c1ccc(F)c(F)c1)Nc1ccc2c(c1)CCC2` [Example C27, 2-[3-(3,4-difluorophenyl)-4-oxo(3-hydroquinazolin-2-ylthio)]-N-indan-5-ylacetamide], the IC50 at HCV Con1b (Replicon) and in the series with WNV was 5 to 25 µM throughout. The CC50 in the series with HCV Con1b (Replicon) and with WNV was not below 100 µM in each case.

`O=C(CSc1nc2c(F)cccc2c(=O)n1-c1ccccc1)Nc1ccc2c(c1)CCC2` [Example C42, 2-(8-fluoro-4-oxo-3-phenyl(3-hydroquinazolin-2-ylthio))-N-indan-5-ylacetamide]: in the series with WNV, the IC50 lay within 5 to 25 µM and the CC50 was not below 100 µM.
